In PubChem BioAssay (NCI) one finds GI50 and TGI data, which are given here for ten compounds.

What all share (assay): NCI-60 cell line screen, 48 h
In assay [1] the test system is 786-0 renal.
Assay [2] deals with HCC-2998 colon.
Assay [3] concerns IGROV1 ovarian.
Assay [4] relates to M14 melanoma.
The test system of assay [5] is NCI-H460 lung.
In assay [6] the test system is NCI-H522 lung.
Assay [7] relates to SNB-75 CNS.
The test system of assay [8] is EKVX NSCLC.

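Five compound concentrations were applied to cells in 96-well plates for 48 hours; endpoints were derived by simple linear interpolation of the resulting dose-response curve. GI50 marks 50% less growth. TGI: concentration producing complete growth inhibition.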

Consider `CCN(Cc1ccc(F)cc1)c1ccc(CO)c(C(F)(F)F)c1`, for which the GI50 in assay [1] is 12.4 µM; in assay [2] it was 14.9 µM; in assay [3], 1.56 µM; in assay [4], 15.1 µM; in assay [5], 3.43 µM; in assay [6], 12.5 µM. For the same compound, in assay [7], the GI50 was 14.3 µM. In addition, the TGI in assay [1] stood at 26.2 µM; in assay [2] it was 28.2 µM; in assay [3] it was 11.6 µM; in assay [4], 30.9 µM; in assay [5], 15.7 µM; in assay [6] it was 26.9 µM. For the same compound, the TGI in assay [7] was 30.6 µM.
Regarding `COc1ccc2nc3cc(Cl)ccc3c(N3CCN(c4ccnc(N5CCN(C)CC5)n4)CC3)c2c1`, the GI50 is 1.61 µM in assay [1]; 1.99 µM in assay [2]; 2.24 µM in assay [3]; 2.04 µM in assay [4]; 2.29 µM in assay [5]; 1.61 µM in assay [6]. Also, the GI50 in assay [7] was 1.47 µM. The TGI in assay [1] came out at 3 µM; in assay [2] it was 3.69 µM; in assay [3] it was 5.08 µM; in assay [4], 4.06 µM; in assay [5], 5.43 µM; in assay [6], 3.13 µM. This compound also had a TGI in assay [7] of 3.05 µM.
On to `O=S(=O)(NCCCNc1nccc(-c2c(-c3ccc(F)cc3)nc3sccn23)n1)c1ccc(F)cc1`, for which the GI50 in assay [1] was 11 µM; in assay [2], 20.6 µM; in assay [3] it was 8.85 µM; in assay [4] it was 7.06 µM; in assay [5], 5.62 µM; in assay [6], 10 µM. The GI50 in assay [7] was 2.16 µM. Moreover, the TGI in assay [1], in assay [2], in assay [3], in assay [4], in assay [5] and in assay [6] was above 100 µM each time. Further, the TGI in assay [7] was determined as 16.9 µM.
As for `CC(C)N(Cc1ccc(F)cc1)c1ccc(CO)c(Cl)c1`, the GI50 in assay [1] was 7 µM; in assay [2], 2.81 µM; in assay [3] it was 0.0479 µM; in assay [4], 13 µM; in assay [5], 0.144 µM; in assay [6] it was 11.3 µM. For the same compound, the GI50 in assay [7] is 9.21 µM. The TGI in assay [1] came out at 22.1 µM; in assay [2], 20 µM; in assay [3], 0.266 µM; in assay [4] it was 28.8 µM; in assay [5] it was 10.7 µM; in assay [6], 26.7 µM. Besides, in assay [7], the TGI amounted to 23.3 µM.
For `Cc1ccc(Cl)cc1-n1c(C)nc2c(cnn2-c2ccnc3c(C(F)(F)F)cccc23)c1=O`, the GI50 in assay [1], in assay [8], in assay [2], in assay [3], in assay [5] and in assay [6] was above 100 µM each time. The GI50 in assay [7] is above 100 µM. Besides, the TGI in assay [1], in assay [8], in assay [2], in assay [3], in assay [5] and in assay [6] was above 100 µM throughout. In assay [7], the TGI was above 100 µM.
Consider `N#CC1C(N)=NNC12Nc1ccccc1S2` (centres undefined), for which the GI50 in assay [1] is 63.4 µM; in assay [8] it was 15.4 µM; in assay [3] it was 3.22 µM; in assay [4], 15.3 µM; in assay [5] it was 36.6 µM; in assay [6], 7.8 µM. The TGI in assay [1] was above 100 µM; in assay [8], 60.9 µM; in assay [3] it was 20.6 µM; in assay [4], 40.5 µM; in assay [5], above 100 µM; in assay [6], 29.7 µM.
Turning to `Cn1c(C(=O)c2cccc3ccccc23)nc2ccccc21`, the GI50 in assay [1] is above 100 µM; in assay [2], above 100 µM; in assay [3], above 100 µM; in assay [5], above 100 µM; in assay [6] it was above 100 µM; in assay [7], 15.3 µM. For the same compound, the TGI in assay [1], in assay [2], in assay [3], in assay [5], in assay [6] and in assay [7] was above 100 µM throughout.
With `Fc1ccc2nc(-c3nc(-c4ccccc4)n4ccccc34)[nH]c2c1`, the GI50 is 2.23 µM in assay [1]; 4.11 µM in assay [2]; 1.95 µM in assay [3]; 3.83 µM in assay [4]; 2.07 µM in assay [5]; 2.43 µM in assay [6]. The GI50 in assay [7] was 2.09 µM. Besides, the TGI in assay [1] is 4.23 µM; in assay [2] it was 16.9 µM; in assay [3] it was 5.3 µM; in assay [4], 14.1 µM; in assay [5], 5.2 µM; in assay [6], 5.6 µM. This compound gave a TGI in assay [7] of 6.87 µM.
Consider `C=CCN(CC=C)C(=O)[C@H](CC)[C@@H]1CC[C@@H](C)[C@@H]([C@H](C)[C@@H](O)[C@@H](C)C(=O)[C@H](CC)C2O[C@]3(C=C[C@@H](O)[C@]4(CC[C@@](C)([C@H]5CC[C@](O)(CC)[C@H](C)O5)O4)O3)[C@H](C)C[C@@H]2C)O1` (some centres undefined), for which the GI50 in assay [1] was 2.19 µM; in assay [8], 2.33 µM; in assay [2], 2.41 µM; in assay [3] it was 2.41 µM; in assay [5] it was 1.97 µM; in assay [6], 2.08 µM. Also, the GI50 in assay [7] is 1.84 µM. Further, the TGI was found to be 5.48 µM in assay [1]; 9.07 µM in assay [8]; 7.26 µM in assay [2]; 8.53 µM in assay [3]; 4.35 µM in assay [5]; 5.68 µM in assay [6]. Moreover, in assay [7], the TGI was found to be 10.5 µM.
Consider `O=[N+]([O-])c1cc(Cc2cc([N+](=O)[O-])c3cccnc3c2O)c(O)c2ncccc12`, for which the TGI was above 54.3 µM in assay [1]; 61.9 µM in assay [8]; 17.2 µM in assay [3]; 30.1 µM in assay [4]; 9.4 µM in assay [5]; 38 µM in assay [6]. Besides, in assay [7], the TGI was found to be 24.9 µM.
